BindingDB's records for doi:10.1021/cc020096o (University of Anterwerp, 2003)

Key:
[1] = biological target: Dipeptidyl peptidase 2 (Homo sapiens, UniProt Q9UHL4); test: DPP IV Assay; conditions: pH 5.5
[2] = biological target: Dipeptidyl peptidase 4 (Homo sapiens, UniProt P27487); test: DPP IV Assay; conditions: pH 8.3
Protocol: Inhibitory concentration of the compound against Dipeptidyl peptidase IV (DPP IV) in Homo sapiens (human)is measured

Chain of Dipeptidyl peptidase 4 (P27487 whole entry): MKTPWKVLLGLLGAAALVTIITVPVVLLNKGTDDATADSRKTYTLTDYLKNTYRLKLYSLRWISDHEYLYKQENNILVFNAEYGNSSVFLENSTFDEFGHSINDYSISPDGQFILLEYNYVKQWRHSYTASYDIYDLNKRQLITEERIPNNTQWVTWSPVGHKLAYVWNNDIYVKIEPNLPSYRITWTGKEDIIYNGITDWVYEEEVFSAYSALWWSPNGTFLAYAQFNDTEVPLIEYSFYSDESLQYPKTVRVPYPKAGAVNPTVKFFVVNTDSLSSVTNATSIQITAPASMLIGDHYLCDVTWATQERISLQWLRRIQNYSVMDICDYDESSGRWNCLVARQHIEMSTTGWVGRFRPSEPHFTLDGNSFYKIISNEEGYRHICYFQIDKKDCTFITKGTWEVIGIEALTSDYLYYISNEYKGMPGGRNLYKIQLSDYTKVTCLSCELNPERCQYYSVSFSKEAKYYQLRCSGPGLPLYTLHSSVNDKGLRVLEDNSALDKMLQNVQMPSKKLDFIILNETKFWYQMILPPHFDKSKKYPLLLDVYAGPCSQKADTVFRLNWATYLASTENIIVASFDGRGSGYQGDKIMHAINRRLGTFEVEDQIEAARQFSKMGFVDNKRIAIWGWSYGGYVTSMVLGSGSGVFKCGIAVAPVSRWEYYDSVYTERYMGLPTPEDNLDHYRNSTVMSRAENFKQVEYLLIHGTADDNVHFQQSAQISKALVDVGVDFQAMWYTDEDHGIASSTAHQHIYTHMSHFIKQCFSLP

Compound	IC50 [1] [µM]	IC50 [2] [µM]
O=C(CNC1CCCC1)NC(c1ccccc1)P(=O)(Oc1ccccc1)Oc1ccccc1 (centres undefined)	3.8	> 125
C[C@H](N)C(=O)N1CCCC1P(=O)(Oc1ccccc1)Oc1ccccc1 (some centres undefined)	> 1000	> 1000
NC(=O)C[C@H](N)C(=O)N1CCCC1P(=O)(Oc1ccccc1)Oc1ccccc1 (some centres undefined)	> 125	
N[C@@H](CC(=O)O)C(=O)N1CCCC1P(=O)(Oc1ccccc1)Oc1ccccc1 (some centres undefined)		> 1000
N[C@@H](Cc1cnc[nH]1)C(=O)N1CCCC1P(=O)(Oc1ccccc1)Oc1ccccc1 (some centres undefined)		326
NCCCC[C@H](N)C(=O)N1CCCC1P(=O)(Oc1ccccc1)Oc1ccccc1 (some centres undefined)	> 1000	117
N[C@@H](Cc1ccccc1)C(=O)N1CCCC1P(=O)(Oc1ccccc1)Oc1ccccc1 (some centres undefined)	> 1000	142
CC(NC(=O)CN)P(=O)(Oc1ccccc1)Oc1ccccc1 (centres undefined) [2-amino-N-(1-diphenoxyphosphorylethyl)acetamide]	> 1000	> 500
NCC[C@H](N)C(=O)NC(C1CCCCC1)P(=O)(Oc1ccccc1)Oc1ccccc1 (stereo partly drawn) [(2S)-2,4-diamino-N-[cyclohexyl(diphenoxyphosphoryl)methyl]butanamide]	21	1000
CCCC(NC(=O)[C@@H](N)CCCCN)P(=O)(Oc1ccccc1)Oc1ccccc1 (stereo partly drawn) [(2S)-2,6-diamino-N-(1-diphenoxyphosphorylbutyl)hexanamide]	> 1000	> 1000
CC(NC(=O)[C@@H](N)CCCCN)P(=O)(Oc1ccccc1)Oc1ccccc1 (stereo partly drawn) [(2S)-2,6-diamino-N-(1-diphenoxyphosphorylethyl)hexanamide]	> 1000	> 500
N[C@@H](CO)C(=O)N1CCCC1P(=O)(Oc1ccccc1)Oc1ccccc1 (stereo partly drawn) [(2S)-2-amino-1-(2-diphenoxyphosphorylpyrrolidin-1-yl)-3-hydroxy-propan-1-one]	> 1000	503
CCCC(NC(=O)[C@@H](N)CC1CCCCC1)P(=O)(Oc1ccccc1)Oc1ccccc1 (stereo partly drawn) [(2S)-2-amino-3-cyclohexyl-N-(1-diphenoxyphosphorylbutyl)propanamide]	500	> 250
CC(NC(=O)[C@@H](N)CC1CCCCC1)P(=O)(Oc1ccccc1)Oc1ccccc1 (stereo partly drawn) [(2S)-2-amino-3-cyclohexyl-N-(1-diphenoxyphosphorylethyl)propanamide]	47	> 500
CCC(NC(=O)[C@@H](N)CC1CCCCC1)P(=O)(Oc1ccccc1)Oc1ccccc1 (stereo partly drawn) [(2S)-2-amino-3-cyclohexyl-N-(1-diphenoxyphosphorylpropyl)propanamide]	62	> 1000
N[C@@H](CC1CCCCC1)C(=O)NC(C1CCCCC1)P(=O)(Oc1ccccc1)Oc1ccccc1 (stereo partly drawn) [(2S)-2-amino-3-cyclohexyl-N-[cyclohexyl(diphenoxyphosphoryl)methyl]propanamide]	30	> 250
CCC(CC)C(NC(=O)[C@@H](N)C(C)CC)P(=O)(Oc1ccccc1)Oc1ccccc1 (stereo partly drawn) [(2S)-2-amino-N-(1-diphenoxyphosphoryl-2-ethyl-butyl)-3-methyl-pentanamide]	> 1000	> 1000
CCC(C)C(NC(=O)[C@@H](N)C(C)CC)P(=O)(Oc1ccccc1)Oc1ccccc1 (stereo partly drawn) [(2S)-2-amino-N-(1-diphenoxyphosphoryl-2-methyl-butyl)-3-methyl-pentanamide]	414	> 1000
CCC(C)[C@H](N)C(=O)NC(C(C)C)P(=O)(Oc1ccccc1)Oc1ccccc1 (stereo partly drawn) [(2S)-2-amino-N-(1-diphenoxyphosphoryl-2-methyl-propyl)-3-methyl-pentanamide]	1000	> 1000

Compound	IC50 [1] [µM]	IC50 [2] [µM]
CCC(C)[C@H](N)C(=O)NC(CC(C)C)P(=O)(Oc1ccccc1)Oc1ccccc1 (stereo partly drawn) [(2S)-2-amino-N-(1-diphenoxyphosphoryl-3-methyl-butyl)-3-methyl-pentanamide]	286	> 1000
CCCC(NC(=O)[C@@H](N)C(C)CC)P(=O)(Oc1ccccc1)Oc1ccccc1 (stereo partly drawn) [(2S)-2-amino-N-(1-diphenoxyphosphorylbutyl)-3-methyl-pentanamide]	1000	> 1000
CC(NC(=O)[C@@H](N)Cc1cnc[nH]1)P(=O)(Oc1ccccc1)Oc1ccccc1 (stereo partly drawn) [(2S)-2-amino-N-(1-diphenoxyphosphorylethyl)-3-(1H-imidazol-4-yl)propanamide]	> 500	> 500
CC(NC(=O)[C@@H](N)Cc1ccc(O)cc1)P(=O)(Oc1ccccc1)Oc1ccccc1 (stereo partly drawn) [(2S)-2-amino-N-(1-diphenoxyphosphorylethyl)-3-(4-hydroxyphenyl)propanamide]	> 500	> 500
CC(NC(=O)[C@@H](N)CO)P(=O)(Oc1ccccc1)Oc1ccccc1 (stereo partly drawn) [(2S)-2-amino-N-(1-diphenoxyphosphorylethyl)-3-hydroxy-propanamide]	> 1000	> 500
CC(C)[C@H](N)C(=O)NC(C)P(=O)(Oc1ccccc1)Oc1ccccc1 (stereo partly drawn) [(2S)-2-amino-N-(1-diphenoxyphosphorylethyl)-3-methyl-butanamide]	< 1000	> 500
CCC(C)[C@H](N)C(=O)NC(C)P(=O)(Oc1ccccc1)Oc1ccccc1 (stereo partly drawn) [(2S)-2-amino-N-(1-diphenoxyphosphorylethyl)-3-methyl-pentanamide]	116	> 500
CC(NC(=O)[C@@H](N)Cc1ccccc1)P(=O)(Oc1ccccc1)Oc1ccccc1 (stereo partly drawn) [(2S)-2-amino-N-(1-diphenoxyphosphorylethyl)-3-phenyl-propanamide]	< 1000	> 500
CC(C)C[C@H](N)C(=O)NC(C)P(=O)(Oc1ccccc1)Oc1ccccc1 (stereo partly drawn) [(2S)-2-amino-N-(1-diphenoxyphosphorylethyl)-4-methyl-pentanamide]	> 500	> 1000
CC(NC(=O)[C@@H](N)CC(N)=O)P(=O)(Oc1ccccc1)Oc1ccccc1 (stereo partly drawn) [(2S)-2-amino-N-(1-diphenoxyphosphorylethyl)butanediamide]	286	
CC(NC(=O)[C@H](C)N)P(=O)(Oc1ccccc1)Oc1ccccc1 (stereo partly drawn) [(2S)-2-amino-N-(1-diphenoxyphosphorylethyl)propanamide]	< 1000	
CCC(C)[C@H](N)C(=O)NC(CC)P(=O)(Oc1ccccc1)Oc1ccccc1 (stereo partly drawn) [(2S)-2-amino-N-(1-diphenoxyphosphorylpropyl)-3-methyl-pentanamide]	1000	> 1000
CCC(C)[C@H](N)C(=O)NC(c1cccc(C#N)c1)P(=O)(Oc1ccccc1)Oc1ccccc1 (stereo partly drawn) [(2S)-2-amino-N-[(3-cyanophenyl)-diphenoxyphosphoryl-methyl]-3-methyl-pentanamide]	509	> 125
CCC(C)[C@H](N)C(=O)NC(c1ccc(C#N)cc1)P(=O)(Oc1ccccc1)Oc1ccccc1 (stereo partly drawn) [(2S)-2-amino-N-[(4-cyanophenyl)-diphenoxyphosphoryl-methyl]-3-methyl-pentanamide]	150	> 250
N[C@@H](Cc1cnc[nH]1)C(=O)NC(C1CCCCC1)P(=O)(Oc1ccccc1)Oc1ccccc1 (stereo partly drawn) [(2S)-2-amino-N-[cyclohexyl(diphenoxyphosphoryl)methyl]-3-(1H-imidazol-4-yl)propanamide]	241	> 1000
CCC(C)[C@H](N)C(=O)NC(C1CCCCC1)P(=O)(Oc1ccccc1)Oc1ccccc1 (stereo partly drawn) [(2S)-2-amino-N-[cyclohexyl(diphenoxyphosphoryl)methyl]-3-methyl-pentanamide]	148	> 1000
CCC(C)[C@H](N)C(=O)NC(c1ccccc1)P(=O)(Oc1ccccc1)Oc1ccccc1 (stereo partly drawn) [(2S)-2-amino-N-[diphenoxyphosphoryl(phenyl)methyl]-3-methyl-pentanamide]	18	> 250
O=C(CNC1CCCC1)NC(C1CCCCC1)P(=O)(Oc1ccccc1)Oc1ccccc1 (centres undefined) [N-[cyclohexyl(diphenoxyphosphoryl)methyl]-2-(cyclopentylamino)acetamide]	8	> 125
